Test results as given in US6057371A, “Sigma receptor ligands and the use thereof” (Virginia Commonwealth University, priority 1992, dated 2000).

Target: sigma receptor
Experiment: Sigma receptor binding, [^3 H]DTG, brain membranes (both sigma-1 and sigma-2 sites)
Design: species or system guinea pig
Conditions: Table 6; [^3 H]DTG
Description: Sigma receptor binding assays using guinea pig brain membrane homogenates and the radioligand [^3 H]DTG were conducted as described by Weber et al.. […] Briefly, frozen whole guinea-pig brains (Biotrol, Indianapolis, Ind.) were homogenized in 10 volumes (w/v) of ice-cold 320 mM sucrose using a Brinkman polytron. The homogenate was centrifuged at 1,000× g for 20 minutes at 4° C. The supernatant was centrifuged at 20,000× g for 20 minutes at 4° C. The resulting pellet was resuspended in 10 initial volumes of 50 mM Tris/HCl buffer at pH 7.4 and centrifuged at 20,000× g for 20 minutes at 4° C. The resulting pellet was resuspended in 5 initial volumes ice-cold 50 mM Tris/Hcl […], and the final volume was adjusted to yield a protein concentration of 3 mg/ml. Aliquots of 20-ml were stored at -70° C. until used, with no detectable loss of binding.
The protein concentration in the 1-ml final incubation volume was 800 ug/ml, corresponding to 32 mg of brain tissue (original wet weight) and to a tissue concentration within the linear range for specific binding. […] Incubations were terminated after 90 minutes at room temperature by addition of 4 ml of ice-cold 50 mM Tris/HCl (pH 7.4) and rapid filtration of the membrane suspension through Whatman GF/B glass-fiber filters under vacuum, using a 48-well cell harvester (Brandel). The filters were washed 2 times with 4 ml of 50 mM Tris/HCl (pH 7.4). Each filter was suspended in 10 ml Cytoscint (ICI), and radioactivity was measured by liquid scintillation spectrometry at a counting efficiency of approximately 50%. IC50 values were determined by non-linear regression analyis.
(§1) Further sigma receptor binding assays against [^3 H]DTG and 5HT-1A binding assays were conducted according to the procedure outlined in the previous examples.
Radioligand Binding. […] Briefly, membranes (P2 microsomal fraction) were diluted 1:3 with 50 mM Tris HCl (pH 7.4) and 0.4 mL was combined with 50 μL [^3 H]DTG (1-2 nM final concentration) and 50 μL of competing drug or buffer. After 90 min at room temperature, incubation was terminated by rapid filtration under vacuum through Whatman GF/B glass fiber filters using a Brandel 48-well cell harvester. Filters were washed three times with 5 mL of cold Tris HCl buffer and each filter was suspended in 5 mL of Cytoscint (ICN Biomedical). Radioactivity was measured by liquid scintillation spectrometry at a counting efficiency of 50%.

SMILES | IC50
c1ccc(CCCCCN2CCC(c3ccccc3)CC2)cc1 [Compound 82] | 0.96 nM
CCCc1ccc(CC(C)N(C)CCCc2ccccc2)cc1 (centres unmarked) [Compound 86] | 2.43 nM
c1ccc(CCCCN2CCC(c3ccccc3)CC2)cc1 [Compound 81] | 0.88 nM
CC(C)=CCN(C)[C@@H](C)Cc1ccccc1 [Compound 114] | 6.71 nM

Target: T1, sigma-1 binding site (Cavia porcellus, UniProt Q60492)
T1 construct: Guinea pig whole membrane preparations (P2 microsomal fraction); from tissue; host or cells: guinea pig membranes (P2 microsomal fraction), as described by Weber et al; brain inferred from the sister test b489
T1 sequence (Q60492 whole entry): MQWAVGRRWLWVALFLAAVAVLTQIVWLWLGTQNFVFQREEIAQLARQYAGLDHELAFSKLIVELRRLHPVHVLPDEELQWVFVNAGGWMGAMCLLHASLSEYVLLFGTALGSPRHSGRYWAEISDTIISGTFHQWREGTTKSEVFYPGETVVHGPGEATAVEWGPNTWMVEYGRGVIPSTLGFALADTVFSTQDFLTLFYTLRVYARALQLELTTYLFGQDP
Experiment: biochemical
Design: species or system guinea pig
Conditions: SIGMA-1 KI vs. 3H-PENTAZOCINE MEAN
Description: [^3 H]DTG was purchased from DuPont/NEN.
The radioactivity on the filters was determined by scintillation spectrometry at an efficiency of about 50% using Cytoscint (ICN) scintillation fluid.

SMILES | Ki
CN1CCN(CCCN2c3ccccc3Sc3ccc(C(F)(F)F)cc32)CC1 [Trifluperizine, reference compound] | 561 nM
CC(C)N(CCNC(=O)CN1CCCC1=O)C(C)C [Pramiracetam, reference compound] | 10000 nM
OCCN1CCN(CCCN2c3ccccc3Sc3ccc(Cl)cc32)CC1 [Perphenazine, reference compound] | 25.1 nM
CCCN1CCC[C@@H](c2cccc(O)c2)C1 [(-)3-PPP, reference compound] | 312 nM
CCCN1CCC[C@H](c2cccc(O)c2)C1 [(+)3-PPP, reference compound] | 47.7 nM
CN(C)CCCN1c2ccccc2Sc2ccc(Cl)cc21 [Chlorpromazine, reference compound] | 336 nM

Same assay, conditions: SIGMA-1 KI vs. 3H-P[…]

SMILES | Ki
COc1ccc2c(c1)[C@]13CCCC[C@@H]1[C@H](C2)N(C)CC3 [Dextromethorphan, reference compound] | 522 nM

Same assay, conditions: Table 10; read-out: SIGMA-1 KI vs. 3H-PENTAZOCINE MEAN

SMILES | Ki
c1ccc2cc(N3CCNCC3)ccc2c1 [Compound 60, N-(2-Naphthyl)piperazine] | 220 nM
O=C(c1ccccc1)N1CCN(CCCCc2ccccc2)CC1 [Compound 80, N-4(4-phenylbutyl)-N'-benzoylpiperazine] | 71.8 nM

Same assay, conditions: Table 11; sigma-1/sigma-2

SMILES | S1/S2 Ratio
CN1CCN(CCCN2c3ccccc3Sc3ccc(C(F)(F)F)cc32)CC1 [Trifluperizine, reference compound] | 3.497
CC(C)N(CCNC(=O)CN1CCCC1=O)C(C)C [Pramiracetam, reference compound] | 1.000
OCCN1CCN(CCCN2c3ccccc3Sc3ccc(Cl)cc32)CC1 [Perphenazine, reference compound] | 0.312
CCCN1CCC[C@@H](c2cccc(O)c2)C1 [(-)3-PPP, reference compound] | 0.248
CCCN1CCC[C@H](c2cccc(O)c2)C1 [(+)3-PPP, reference compound] | 0.097
CN(C)CCCN1c2ccccc2Sc2ccc(Cl)cc21 [Chlorpromazine, reference compound] | 0.471

Same assay, conditions: guinea pig, microsomes

SMILES | S1/S2 Ratio
COc1ccc2c(c1)[C@]13CCCC[C@@H]1[C@H](C2)N(C)CC3 [Dextromethorphan, reference compound] | 0.035

Target: T2, sigma-2 binding site (Cavia porcellus, UniProt H0V073)
T2 construct: Guinea pig whole membrane preparations (P2 microsomal fraction); from tissue; host or cells: guinea pig membranes (P2 microsomal fraction), as described by Weber et al; brain inferred from the sister test b489
T2 sequence (H0V073 1-176): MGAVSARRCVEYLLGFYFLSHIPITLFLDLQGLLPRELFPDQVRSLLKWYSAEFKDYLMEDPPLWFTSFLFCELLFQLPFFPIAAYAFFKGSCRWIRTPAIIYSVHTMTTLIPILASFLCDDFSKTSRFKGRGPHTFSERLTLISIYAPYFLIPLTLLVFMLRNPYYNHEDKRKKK
Experiment: biochemical
Design: species or system guinea pig
Conditions: SIGMA-2 KI vs. 3H-DTG + PENTAZOCINE MEAN
Description: For the standard equilibrium assay, the mixtures were incubated for 30 min. at room temperature, then filtered and the radioactivity determined as described above.

SMILES | Ki
CN1CCN(CCCN2c3ccccc3Sc3ccc(C(F)(F)F)cc32)CC1 [Trifluperizine, reference compound] | 161 nM
CC(C)N(CCNC(=O)CN1CCCC1=O)C(C)C [Pramiracetam, reference compound] | 10000 nM
OCCN1CCN(CCCN2c3ccccc3Sc3ccc(Cl)cc32)CC1 [Perphenazine, reference compound] | 80.4 nM
CCCN1CCC[C@@H](c2cccc(O)c2)C1 [(-)3-PPP, reference compound] | 1260 nM
CC(C(O)c1ccc(O)cc1)N1CCC(Cc2ccccc2)CC1 (centres unmarked) [Ifenprodil, reference compound] | 2.39 nM
CCCN1CCC[C@H](c2cccc(O)c2)C1 [(+)3-PPP, reference compound] | 493 nM
CC(C)(C)[C@@]1(O)CCN2C[C@@H]3c4ccccc4CCc4cccc(c43)[C@H]2C1 [(-)Butaclamol, reference compound] | 3420 nM
C=CCN1CC[C@@]2(C)c3cc(O)ccc3C[C@@H]1[C@@H]2C [(-)SKF 10047, reference compound] | 9130 nM
CC(C)(C)[C@]1(O)CCN2C[C@H]3c4ccccc4CCc4cccc(c43)[C@@H]2C1 [(+)Butaclamol, reference compound] | 1400 nM
CN(C)CCCN1c2ccccc2Sc2ccc(Cl)cc21 [Chlorpromazine, reference compound] | 714 nM
COc1ccc2c(c1)[C@]13CCCC[C@@H]1[C@H](C2)N(C)CC3 [Dextromethorphan, reference compound] | 15000 nM
C[C@@H]1CN(CCCn2c3ccccc3c3ccccc32)C[C@H](C)N1 [Rimoazole, reference compound] | 265 nM

Same assay, conditions: Table 10; read-out: SIGMA-2 KI vs. 3H-DTG + PENTAZOCINE MEAN

SMILES | Ki
OC(CCCN1CCN(c2ncc(F)cn2)CC1)c1ccc(F)cc1 (centres unmarked) [BMY-14802, reference compound] | 133 nM
c1ccc2cc(N3CCNCC3)ccc2c1 [Compound 60, N-(2-Naphthyl)piperazine] | 5600 nM
O=C(c1ccccc1)N1CCN(CCCCc2ccccc2)CC1 [Compound 80, N-4(4-phenylbutyl)-N'-benzoylpiperazine] | 965 nM

Target: T3, 5-HT1A receptor (Rattus norvegicus, UniProt P19327)
T3 sequence (P19327 1-422): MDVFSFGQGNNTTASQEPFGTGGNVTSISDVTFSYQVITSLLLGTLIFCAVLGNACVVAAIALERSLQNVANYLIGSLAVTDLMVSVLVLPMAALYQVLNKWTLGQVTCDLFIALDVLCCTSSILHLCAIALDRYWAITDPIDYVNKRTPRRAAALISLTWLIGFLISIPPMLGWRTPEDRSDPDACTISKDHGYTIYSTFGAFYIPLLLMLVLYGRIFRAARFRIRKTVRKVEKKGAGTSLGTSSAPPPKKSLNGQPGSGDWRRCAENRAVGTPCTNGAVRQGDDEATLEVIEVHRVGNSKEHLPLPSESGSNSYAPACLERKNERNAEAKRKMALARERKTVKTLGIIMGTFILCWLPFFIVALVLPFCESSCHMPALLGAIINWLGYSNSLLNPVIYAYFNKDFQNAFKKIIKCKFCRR
Experiment: biochemical
Assay type: binding
Design: 47: 529-540 (1986); from tissue; host or cells: brain tissue, inferred from the cited method (rat frontal cortex)
Conditions: Table 5
Description: as §1

SMILES | Ratio 5-HT1A /σ
C[C@@H](Cc1ccccc1)N(C)CCc1ccccc1 [Compound 36] | 239

Same assay, conditions: Table 5; read-out: 5-HT1A IC50

SMILES | IC50
C[C@@H](Cc1ccccc1)N(C)CCc1ccccc1 [Compound 36] | 1630 nM

Same assay, conditions: Table 6; read-out: 5HT-1A (nM) MEAN

SMILES | IC50
c1ccc(CCCCCN2CCC(c3ccccc3)CC2)cc1 [Compound 82] | 136 nM
CCCc1ccc(CC(C)N(C)CCCc2ccccc2)cc1 (centres unmarked) [Compound 86] | 502 nM
c1ccc(CCCCN2CCC(c3ccccc3)CC2)cc1 [Compound 81] | 43.9 nM
CC(C)=CCN(C)[C@@H](C)Cc1ccccc1 [Compound 114] | 34000 nM
